Tests used:
MDCK-MDR1 cells = assay: in vitro; format: in vitro ADME; details: dog, MDCK-MDR1
[1] = molecular target: T1, Plasmodium falciparum bc1 complex cytochrome c reductase (Pfbc1) (Plasmodium falciparum, UniProt Q02768); assay: Pfbc1 native assay (cytochrome c reduction by parasite extract); format: biochemical; details: compound 1 μM, mean ± s.e.m. of 4 independent experiments
T1 construct: Parasite extract was then prepared by disruption with a sonicating probe; endogenous in cells; host or cells: P. falciparum 3D7 blood-stage parasites, saponin-freed and sonicated (crude parasite extract)
T1 sequence (Q02768 1-376): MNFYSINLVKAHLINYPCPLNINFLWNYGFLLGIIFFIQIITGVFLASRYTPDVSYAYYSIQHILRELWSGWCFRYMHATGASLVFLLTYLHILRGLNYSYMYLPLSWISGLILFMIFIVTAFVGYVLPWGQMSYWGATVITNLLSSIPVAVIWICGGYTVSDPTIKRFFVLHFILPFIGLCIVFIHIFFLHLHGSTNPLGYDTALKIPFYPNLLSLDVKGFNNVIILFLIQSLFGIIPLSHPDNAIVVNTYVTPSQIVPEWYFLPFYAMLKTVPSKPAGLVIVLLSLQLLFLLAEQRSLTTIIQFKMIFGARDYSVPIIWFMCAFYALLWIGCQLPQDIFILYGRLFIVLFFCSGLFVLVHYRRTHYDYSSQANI
Protocol: Plasmodium falciparum: 3D7 strain was obtained from the Liverpool School of Tropical Medicine. Protease cocktail inhibitor was obtained from Roche. Bradford protein assay dye reagent was obtained from Bio-Rad. All other reagents were obtained from Sigma-Aldrich. Decylubiquinol was produced as per Fisher et al. (Fisher et al. 2004)^21. In brief, 25 mg of decylubiquinone were dissolved in 400 μl of nitrogen-saturated hexane. An equal volume of aqueous 1 M sodium dithionite was added, and the mixture vortexed until colorless. The organic phase containing the decylubiquinol was collected, the solvent was evaporated under N2 and the decylubiquinol finally dissolved in 100 μl of 96% ethanol (acidified with 10 mM HCl). Concentrations of decylubiquinol was determined spectrophotometrically on a Cary 300 Bio UV/visible spectrophotometer (Varian, UK) from absolute spectra, using ε288-320=8.1 mM-1·cm^−1. Decylubiquinol was stored at −80° C. and used within two weeks.
The protocol for the preparation of parasite extract was adapted from Fisher et al. (Fisher et al. 2009)^22. Free parasites were prepared from infected erythrocytes pooled from five T75 flasks, by adding 5 volumes of 0.15% (w/v) saponin in phosphate-buffered saline (137 mM NaCl, 2.7 mM KCl, 1.76 mM K2HPO4, 8.0 mM Na2HPO4, 5.5 mM D-glucose, pH 7.4) for 5 min, followed by three washes by centrifugation in RPMI containing HEPES (25 mM), and a final resuspension in potassium phosphate buffer (50 mM K2HPO4, 50 mM KH2PO4, 2 mM EDTA, pH7.4) containing a protease inhibitor cocktail (Complete Mini; Roche). Parasite extract was then prepared by disruption with a sonicating probe for 5 s, followed by a 1 min rest period on ice to prevent the sample overheating. […] The protein concentration of the parasite extract was determined by Bradford protein assay (Bio-Rad).
Plasmodium falciparum bc1 complex cytochrome c reductase (Pfbc1) activity was measured by monitoring cytochrome c reduction at 550 versus 542 nm using a Cary 300 Bio UV-Visible Spectrophotometer (Varian, UK), using a protocol adapted from Fisher et al. (Fisher et al. 2009)^21-23. […]

Cc1[nH]c2c(c(=O)c1-c1ccc(Oc3ccccc3)cc1)CCCC2 [MJM170]
MDCK-MDR1 Efflux Ratio (MDCK-MDR1 cells): 1.23 | inhibition at 1 µM ([1]; read-out: Inhibition of cytochrome c reduction (% atovaquone response)): 69.7 ± 11.3%

Cc1[nH]c2c(c(=O)c1-c1ccc(Oc3ccc(OC(F)(F)F)cc3)cc1)CCCC2 [JAG21, 2-methyl-3-(4-(4-(trifluoromethoxy)phenoxy)phenyl)-5,6,7,8-tetrahydroquinolin-4(1H)-one]
Inhibition of cytochrome c reduction (% atovaquone response) [1]: 86.4 ± 3.2 % atovaquone response

Reference: patent US11414385B2, “Compounds and methods for treating, detecting, and identifying compounds to treat apicomplexan parasitic diseases” (The University of Chicago, priority 2015, dated 2022)
